Test results from patent publication US20160298082A1, “METHOD FOR OBTAINING IMMUNO-STIMULATORY DENDRITIC CELLS” (TRANSIMMUNE AG, priority 2013, published 2016).
“Also recorded” adds a separate entry of the source. No end group written: not given here.

How the values were obtained:
GILZ = GILZ mRNA expression in CD11c+ MoDC (quantitative real-time PCR); format: cell-based, human; settings: relative to untreated MoDC cultured alone; 24 hr (FIG. 13B); dex 100 nM; PUVA 100 ng/mL, 1 J/cm^2
Protocol: Monocytes were cultured at a density of 5×10^6 cells/mL in 6- and 12-well polystyrene tissue culture plates at 37° C. and 5% CO2 in RPMI-1640 (Gibco) supplemented with heat-inactivated 15% AB serum (Gemini) and 1% penicillin/streptomycin (now referred to as complete media). 800 IU/mL recombinant human GM-CSF (R&D Systems) and 1000 IU/mL recombinant human IL-4 (R&D Systems) were added to cultures for 36 hr to induce monocyte to DC differentiation as described.
Non-adherent cells (purity: 66.0±4.5% CD3^+) removed during plastic adherence will now be generally referred to as lymphocytes. Lymphocytes were treated with 8-MOP (100 ng/mL) and UVA (1 J/cm^2), washed with PBS, and co-cultured in complete media at 37° C. and 5% CO2 with either PUVA-treated or untreated-MoDC in a ratio of 5 or 10 lymphocytes to 1 MoDC. […] 24 hr after LPS stimulation, cells were harvested for RNA isolation and immunophenotyping, and supernatants were collected for cytokine quantification.
RNA was isolated from CD11c^+ MoDC using QIAShredder columns (QIAGEN) and the RNeasy Mini Kit (QIAGEN) with on-column Dnase I treatment (QIAGEN). RNA yield and purity were assessed using a NanoDrop ND-1000 spectrophotometer. cDNA was obtained using the High Capacity cDNA Reverse Transcription Kit (Applied Biosystems) in a 96-well thermocycler (MJ Research PTC-200). […]

MoDC [1] = assay: Cytokine quantification in MoDC supernatants after LPS stimulation (magnetic bead multiplex); format: cell-based, human; settings: after LPS; untreated MoDC 6.7
Protocol: Lymphocytes were treated with 8-MOP (100 ng/mL) and UVA (1 J/cm^2), washed with PBS, and co-cultured in complete media at 37° C. and 5% CO2 with either PUVA-treated or untreated-MoDC in a ratio of 5 or 10 lymphocytes to 1 MoDC. MoDC treated for 24 hr with 100 nM dexamethasone (Sigma) served as the positive control group. After 24 hr, cells were harvested and MoDC were re-purified. […] CD11c^+ MoDC were re-plated at 0.5-1.0×10^6 cells/mL in complete media and stimulated with 100 ng/mL LPS (Sigma). 24 hr after LPS stimulation, cells were harvested for RNA isolation and immunophenotyping, and supernatants were collected for cytokine quantification.
(§1) Culture supernatants were analyzed in a multiplex format utilizing magnetic beads to IL-6, IL-8, IL-10, IL-12p70, IFN-γ, TNF-α, RANTES, MCP-1, and MIP-1β (BioRad Laboratories). For siRNA experiments, supernatants were analyzed with enzyme-linked immunosorbent assay (ELISA) kits for IL-10 (R&D Systems) and IL-12p70 (Enzo Life Science). All samples and standards were run in duplicate and analyzed using the LUMINEX 200 (LUMINEX), or the BioTek EL800 (BioTek).

MoDC [2] = assay: IL-10 and IL-12p70 ELISA in siRNA experiments; format: cell-based, human; settings: siRNA experiment, not transfected
Protocol: Silencer select pre-designed and validated GILZ siRNA (Invitrogen), with off-target prediction algorithms, was used to knockdown GILZ expression. Mo-DC were transfected using Lipofectamine RNAiMAX Reagent (Invitrogen). RNAi duplex and lipofectamine reagent were incubated together for 20 min, then added to MoDC cultures and incubated for 2 hr at 37° C. and 5% CO2. Transfected MoDC were treated in an identical fashion as described for the MoDC/lymphocyte co-cultures. MoDC were also transfected with scramble siRNA.
as §1

platelets = assay: Platelet adhesion to protein-coated Vena8 channels under flow; format: cell-based, human; settings: for Platelet adhesion to fibrinogen-coated plates after pre-incubation of platelets with peptide / Platelet adhesion to fibronectin-coated plates after pre-incubation of platelets with peptide: PRP pre-incubated with 2 mM peptide 20 min
Protocol: Platelet adhesion experiments were performed using the Vena8 flow chamber described above. Fibrinogen and fibronectin (Sigma) were dissolved in PBS to a final concentration of 200 mcg/ml. Channels of the Vena8 chips were incubated at room temperature in a humidified chamber for 2 hours with the protein solution, autologous plasma, or PBS alone. The channels were washed with 5× the volume RPMI. Platelet-rich-plasma was then perfused through the protein-coated channel at the indicated shear-stress, held constant. For each channel, still images were acquired exactly 90 seconds into the experiment at 4 pre-defined low power fields located along the flow path (fields were centered at 2500, 7500, 12500, and 17500 microns from the start point of infusion).
Some experiments involved pre-treating platelet-rich-plasma with protein fragments prior to infusion through the channels. Small RGD peptides, containing the amino-acid sequence Arg-Gly-Asp-Ser; DRG peptides, contain the amino-acid sequence Ser-Asp-Gly-Arg; or fragment 400-411 of fibrinogen, containing the amino-acid sequence His-His-Leu-Gly-Gly-Ala-Lys-Gln-Ala-Gly-Asp-Val, were incubated at a concentration of 2 mM with PRP for 20 minutes at room temperature. The PRP was then perfused through the channels as previously described.

[3] = tested on: monocyte-platelet interactions; assay: Monocyte-platelet interactions on platelet-coated plates under flow (receptor-ligand studies); format: cell-based, human
Protocol: Platelet-coated Vena8 channels were pre-treated with either 40 μg/ml anti-P-selectin (R&D Systems) or 40 μg/ml of an isotype control for 30 minutes at room temperature, then washed with 5× the volume RPMI. Mononuclear cell suspensions were pre-treated with either RGD or DGR peptides at a concentration of 2.5 mM. Video samples lasting 400 frames (26.3 seconds) were recorded 60 seconds after commencement of flow using a lower power field of view spanning 400 microns and centered at 7500 microns from the flow start point.
The monocyte-platelet interactions observed on video were divided into two categories: (1) short-acting, arbitrarily defined as contact occurring for less than 3 seconds (46 frames), and (2) long-acting, defined as contact longer than 3 seconds, including stable binding. Since it had been previously determined that the platelets in the ECP system were in an activated state, and that activated platelets express an array of proteins including P-selectin and RGD containing proteins (e.g. fibronectin, fibrinogen, and vitronectin), it was sought to determine the involvement, if any, of these proteins in either short or long-duration interactions. Plates were pre-coated with platelets, and four conditions tested: (1) platelets pre-treated with an irrelevant isotype control, and monocytes untreated (P+RGD+); (2) platelets pre-treated with an irrelevant isotype control, and monocytes pre-incubated with RGD peptides (P+RGD−); (3) platelets pre-treated with anti-P-selectin, and monocytes untreated (P−RGD+); (4) platelets pre-treated with anti-P-selectin, and monocytes pre-treated with RGD peptides (P−RGD−). It was assumed that pre-treating monocytes with RGD peptides should result in a decreased in the number of free RGD-recognizing receptors available to interact with RGD-containing proteins expressed by the platelets. […] As shown by FIG. 6, both short-acting and long-acting interactions were maximal when neither RGD nor P-selectin were blocked (P+RGD+); the level of interaction in all other conditions was expressed as a percentage of this maximum. […]

[4] = molecular target: β1 integrin (CD29), active (open) conformation, on monocytes (human) (UniProt P05556); assay: flow cytometry of monocytes before passage through the plates
Sequence of β1 integrin (CD29), active (open) conformation, on monocytes (human) (P05556 21-798): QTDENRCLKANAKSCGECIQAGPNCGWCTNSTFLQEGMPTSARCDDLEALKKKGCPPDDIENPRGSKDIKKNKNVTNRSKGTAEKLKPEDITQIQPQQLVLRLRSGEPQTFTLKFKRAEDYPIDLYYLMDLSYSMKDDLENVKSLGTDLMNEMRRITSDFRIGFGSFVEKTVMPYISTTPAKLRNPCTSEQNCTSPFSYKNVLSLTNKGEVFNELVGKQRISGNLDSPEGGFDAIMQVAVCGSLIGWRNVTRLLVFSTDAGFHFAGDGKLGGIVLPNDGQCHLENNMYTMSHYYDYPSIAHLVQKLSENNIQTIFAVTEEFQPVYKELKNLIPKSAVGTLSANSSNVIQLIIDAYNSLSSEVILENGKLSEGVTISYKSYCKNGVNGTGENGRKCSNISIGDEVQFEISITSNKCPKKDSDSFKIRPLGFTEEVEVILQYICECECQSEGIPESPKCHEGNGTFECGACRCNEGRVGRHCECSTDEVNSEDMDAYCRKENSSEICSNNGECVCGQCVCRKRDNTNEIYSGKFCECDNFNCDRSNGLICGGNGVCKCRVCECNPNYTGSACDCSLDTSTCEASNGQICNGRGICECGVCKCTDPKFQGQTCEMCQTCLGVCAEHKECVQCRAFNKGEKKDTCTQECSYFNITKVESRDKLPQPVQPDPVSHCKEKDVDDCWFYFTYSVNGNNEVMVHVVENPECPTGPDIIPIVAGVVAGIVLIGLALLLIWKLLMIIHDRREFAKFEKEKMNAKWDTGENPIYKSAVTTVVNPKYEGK

[5] = molecular target: β1 integrin (CD29), active (open) conformation, on monocytes (human) (UniProt P05556); assay: flow cytometry of monocytes immediately after flow over platelet-coated plates, low number of platelet interactions
[6] = molecular target: β1 integrin (CD29), active (open) conformation, on monocytes (human) (UniProt P05556); assay: flow cytometry of monocytes immediately after flow over platelet-coated plates, high number of platelet interactions
[7] = molecular target: RGD-recognizing receptors (on monocytes); assay: cell-based or functional assay
[8] = 0.5 dyne/cm2, relative to P+RGD+ maximum

Molecule: C[C@@H]1C[C@H]2[C@@H]3CCC4=CC(=O)C=C[C@]4(C)[C@@]3(F)[C@@H](O)C[C@]2(C)[C@@]1(O)C(=O)CO [dexamethasone]
- GILZ up-regulation, MoDC cultured alone (GILZ): 4.29 fold
- Ratio of IL-10 to IL-12p70, MoDC cultured alone (MoDC [1]): 67.7
- IL-10 to IL-12p70 ratio, non-transfected MoDC cultured alone (MoDC [2]): 15.3

Molecule: Arg-Gly-Asp-Ser (RGDS; printed: Arg-Gly-Asp-Ser) [RGD peptides, small RGD peptides]
- Platelet adhesion to fibrinogen-coated plates after pre-incubation of platelets with peptide (platelets): not significantly altered
- Platelet adhesion to fibronectin-coated plates after pre-incubation of platelets with peptide (platelets): decreased adhesion significantly
- Long-duration (>3 s) monocyte-platelet interactions [3, 8]: significant decrease
- Short-duration (<3 s) monocyte-platelet interactions [3, 8]: did not significantly alter; also recorded: no change
- Decrease of long-duration monocyte-platelet interactions ([3]; monocytes pre-incubated with RGD peptides 2.5 mM (P+RGD−)): 44%

Molecule: HHLGGAKQAGDV [gamma fragments, gamma component of fibrinogen, amino acids 400-411]
- Platelet adhesion to fibrinogen-coated plates after pre-incubation of platelets with peptide (platelets): decreased
- Platelet adhesion to fibrinogen-coated plates after pre-incubation of platelets with peptide (platelets; listed as peptide fragments corresponding to amino acids 400-411 of fibrinogen): significantly decreased
- Platelet adhesion to fibronectin-coated plates after pre-incubation of platelets with peptide (platelets): had no effect

Molecule: anti-CD29 HUTS-21 (BD Biosciences) (antibody)
- percent of monocytes that bound the antibody (baseline integrin activation) [4]: < 10%
- percent of monocytes that bound the antibody (β1 in the active form) [5]: 9%
- percent of monocytes that bound the antibody (β1 in the active form) [6]: 71%

Molecule: fibrinogen
- Platelet adhesion to plates coated with the protein (platelets; coating 200 mcg/ml, wall shear stress 0.2 to 6.0 dyne/cm^2): highest concentrations of platelets adhered

Molecule: RGDS [RGD peptides, containing the amino-acid sequence Arg-Gly-Asp-Ser]
- long-duration monocyte-platelet interactions under flow (video microscopy) [7]: 44%
